# Earlier results in patent EP2738198A1, “Enzymatic synthesis of polyamide in aqueous mini-emulsion” (Henkel AG & Co. KGaA, priority 2012, dated 2014).
# Settings: alcohol CnH2n+1OH corresponding to the alkyl group of the di(alkyl) sebacate, data from Handbook of Chemistry and Physics 86th Edition
row,Structure (SMILES),Partial Solubility of CnH2n+1OH in water
1,CCCCCCO [n 6],7900 µg/mL
2,CCO [n 2],∞
3,CCCCCCCCO [n 8],300 µg/mL
